Test results as given in patent US9617244B2, “Antibacterial quinoline derivatives” (JANSSEN PHARMACEUTICA NV, priority 2012, dated 2017).
≈ marks a conversion by molar mass, not a printed value.

Tests used:
[1] = system: Staphylococcus aureus (ATCC29213); experiment: In-vitro anti-bacterial activity, microtitre plate assay, IC90 determination (non-mycobacterial strains); format: cell-based; settings: 90% inhibitory concentration for bacterial growth, resazurin fluorescence; for IC90 STA B29213: 24 hours; for IC90: Staphylococcus aureus, ATCC29213, 24 h, read-out: IC90 STA B29213
Method in brief: (§1)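 Inoculum of about 100 TCID50 (10–60 CFU/well) in Mueller-Hinton broth, serial five-fold compound dilutions, 24 h at 37 °C in air. Growth read by resazurin fluorescence (ex 530/em 590 nm); IC90 in μg/ml as 90% growth inhibition.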

[2] = system: Streptococcus pneumoniae (ATCC6305); experiment: as above; format: cell-based; settings: 90% inhibitory concentration for bacterial growth, resazurin fluorescence; for IC90: Streptococcus pneumoniae, ATCC6305, 24 h, read-out: IC90 SPN 6305; for IC90 SPN 6305: 24 hours
Method in brief: as §1

[3] = system: Mycobacterium smegmatis (ATCC607); experiment: In-vitro anti-bacterial activity against strain M. Smegmatis ATCC607; format: cell-based; settings: 90% inhibitory concentration for bacterial growth, Alamar Blue fluorescence; for IC90 MSM 607: 48 hours; for IC90: Mycolicibacterium smegmatis, ATCC607, 48 h, read-out: IC90 MSM 607
Method in brief: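 Serial five-fold compound dilutions in BSA-supplemented wells, inoculated with ~250 CFU/well in Mueller-Hinton broth, incubated 48 h at 37 °C, 5% CO2. Growth read by Alamar Blue fluorescence (ex 530/em 590 nm); IC90 in μg/ml.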

Row | Structure (SMILES) | IC90 STA B29213 [1] [µg/mL] | IC90 [2] [µg/mL] | IC90 MSM 607 [3] [µg/mL] | melting point [°C] | IC90 [1] [µg/mL] | IC90 [3] [µg/mL] | IC90 SPN 6305 [2] [µg/mL]
1 | COc1nc2ccc(-c3cccnc3)cc2cc1C(c1cccc(Cl)c1)C1(O)CCNC(Cc2ccccc2)C1 (stereo not shown) [Compound 15] | 1.74 (≈ 3.16 µM) | 6.93 (≈ 12.6 µM) | 1.38 (≈ 2.51 µM) | 220 | – | – | –
2 | COc1nc2ccc(Br)cc2cc1C(c1cccc(Cl)c1)C1(O)CCNC(Cc2ccccc2)C1 (stereo not shown) [Compound 35] | – | 4.37 (≈ 7.92 µM) | – | – | 2.76 (≈ 5 µM) | 2.19 (≈ 3.97 µM) | –
3 | COc1nc2ccc(S(C)(=O)=O)cc2cc1C(c1ccc(Cl)cc1)C1(O)CCNC(Cc2ccccc2)C1 (stereo not shown) [Compound 38] | 3.48 (≈ 6.31 µM) | 6.94 (≈ 12.6 µM) | 3.48 (≈ 6.31 µM) | 130 | – | – | –
4 | COc1nc2ccc(Br)cc2cc1C(c1ccc(Cl)cc1)C1(O)CCNC(Cc2ccc(F)c(F)c2)C1 (stereo not shown) [Compound 39] | – | 5.24 (≈ 8.91 µM) | – | 106 | 1.17 (≈ 1.99 µM) | 0.93 (≈ 1.58 µM) | –
5 | O=c1[nH]c2ccc(Br)cc2cc1C(c1ccc(Cl)cc1)C1(O)CCNC(Cc2ccc(F)c(F)c2)C1 (stereo not shown) [Compound 40] | – | 6.83 (≈ 11.9 µM) | – | – | 3.42 (≈ 5.96 µM) | 1.93 (≈ 3.36 µM) | –
6 | COc1nc2ccc(Br)cc2cc1C(c1ccc(Cl)cc1)C1(O)CCNCC1Cc1ccccc1 (stereo not shown) [Compound 41] | 3.48 (≈ 6.31 µM) | – | 3.48 (≈ 6.31 µM) | – | – | – | 6.95 (≈ 12.6 µM)
7 | O=c1[nH]c2ccc(Br)cc2cc1C(c1cccc(Cl)c1)C1(O)CCNC(Cc2ccccc2)C1 (stereo not shown) [Compound 86] | 1.82 (≈ 3.38 µM) | 4.56 (≈ 8.48 µM) | 4.07 (≈ 7.57 µM) | – | – | – | –
8 | CSc1nc2ccc(Br)cc2cc1C(c1ccc(Cl)cc1)C1(O)CCNC(Cc2ccccc2)C1 (stereo not shown) [Compound 87] | 3.58 (≈ 6.3 µM) | 7.15 (≈ 12.6 µM) | 2.85 (≈ 5.02 µM) | 227 | – | – | –
9 | CSc1nc2ccc(Br)cc2cc1C(c1ccc(Cl)cc1)C1(O)CCNC(Cc2ccccc2)C1 (stereo not shown) [Compound 88] | 2.63 (≈ 4.63 µM) | – | 1.66 (≈ 2.92 µM) | – | – | – | 8.32 (≈ 14.6 µM)
10 | COc1nc2ccc(SC)cc2cc1C(c1ccc(Cl)cc1)C1(O)CCNC(Cc2ccccc2)C1 (stereo not shown) [Compound 90] | – | 8 (≈ 15.4 µM) | – | – | 3.18 (≈ 6.13 µM) | 3.18 (≈ 6.13 µM) | –
11 | COc1nc2ccc(SC)cc2cc1C(c1ccc(Cl)cc1)C1(O)CCNC(Cc2ccccc2)C1 (stereo not shown) [Compound 91] | 1.64 (≈ 3.16 µM) | – | 1.64 (≈ 3.16 µM) | 214 | – | – | 4.63 (≈ 8.92 µM)
12 | COc1nc2ccc(SC)cc2cc1C(c1ccc(Cl)cc1)C1(O)CCNC(Cc2ccccc2)C1 (stereo not shown) [Compound 92] | 1.64 (≈ 3.16 µM) | – | 1.64 (≈ 3.16 µM) | 114 | – | – | 6.54 (≈ 12.6 µM)
13 | COc1nc2ccc(SC)cc2cc1C(c1ccc(Cl)cc1)C1(O)CCNC(Cc2ccccc2)C1 (stereo not shown) [Compound 93] | 3.18 (≈ 6.13 µM) | – | 2.01 (≈ 3.87 µM) | – | – | – | 5.66 (≈ 10.9 µM)
14 | COc1nc2ccc(Cl)cc2cc1C(c1ccc(Cl)cc1)C1(O)CCNC(Cc2ccccc2)C1 (stereo not shown) [Compound 94] | 3.13 (≈ 6.17 µM) | 4.95 (≈ 9.75 µM) | 1.76 (≈ 3.47 µM) | – | – | – | –
15 | COc1nc2ccc(Br)cc2cc1C(c1ccc(SC)cc1)C1(O)CCNC(Cc2ccccc2)C1 (stereo not shown) [Compound 98] | 1.78 (≈ 3.16 µM) | 6.32 (≈ 11.2 µM) | 1.12 (≈ 1.99 µM) | – | – | – | –
16 | COc1nc2ccc(Br)cc2cc1C(c1ccc(SC)cc1)C1(O)CCNC(Cc2ccccc2)C1 (stereo not shown) [Compound 99] | 1.78 (≈ 3.16 µM) | – | 1.42 (≈ 2.52 µM) | 214 | – | – | 6.32 (≈ 11.2 µM)
17 | COc1nc2ccc(Br)cc2cc1C(c1ccc(SC)cc1)C1(O)CCNC(Cc2ccccc2)C1 (stereo not shown) [Compound 101] | 3.56 (≈ 6.32 µM) | – | 1.59 (≈ 2.82 µM) | – | – | – | 6.32 (≈ 11.2 µM)
18 | COc1nc2ccc(Br)cc2cc1C(c1ccc(S(C)(=O)=O)cc1)C1(O)CCNC(Cc2ccccc2)C1 (stereo not shown) [Compound 102] | 3.76 (≈ 6.31 µM) | 7.5 (≈ 12.6 µM) | 3.76 (≈ 6.31 µM) | 145 | – | – | –
19 | COc1nc2ccc(Br)cc2cc1C(c1ccc(Cl)cc1)C1(O)CCNC(Cc2ccc(F)c(F)c2)C1 (stereo not shown) [Compound 112] | 1.66 (≈ 2.82 µM) | – | 0.93 (≈ 1.58 µM) | 124 | – | – | 6.60 (≈ 11.2 µM)
20 | COc1nc2ccc(Br)cc2cc1C(c1ccc(Cl)cc1)C1(O)CCNC(Cc2ccc(F)c(F)c2)C1 (stereo not shown) [Compound 113] | 2.02 (≈ 3.44 µM) | – | 1.01 (≈ 1.72 µM) | – | – | – | 4.04 (≈ 6.87 µM)
21 | COc1nc2ccc(Br)cc2cc1C(c1ccc(Cl)cc1)C1(O)CCNCC1Cc1ccccc1 (stereo not shown) [Compound 114] | – | 4.38 (≈ 7.94 µM) | 0.98 (≈ 1.78 µM) | – | 1.75 (≈ 3.17 µM) | – | –
22 | COc1nc2ccc(Br)cc2cc1C(c1ccc(C#N)cc1)C1(O)CCNC(Cc2ccccc2)C1 (stereo not shown) [Compound 115] | – | 4.16 (≈ 7.67 µM) | – | – | 3.3 (≈ 6.08 µM) | 2.08 (≈ 3.83 µM) | –
23 | COc1nc2ccc(Br)cc2cc1C(c1ccc(C#N)cc1)C1(O)CCNC(Cc2ccccc2)C1 (stereo not shown) [Compound 116] | 3.42 (≈ 6.3 µM) | – | 1.72 (≈ 3.17 µM) | 153 | – | – | 6.83 (≈ 12.6 µM)
24 | COc1nc2ccc(Br)cc2cc1C(c1ccc(Cl)cc1)C1(O)CCNCC1Cc1ccccc1 (stereo not shown) [Compound 117] | – | 5.52 (≈ 10 µM) | – | – | 3.48 (≈ 6.31 µM) | 2.77 (≈ 5.02 µM) | –
25 | O=c1[nH]c2ccc(Br)cc2cc1[C@@H](c1ccc(Cl)cc1)[C@]1(O)CCNC(Cc2ccccc2)C1 (stereo partly shown) [Compound 121] | – | 3.62 (≈ 6.73 µM) | – | – | 3.62 (≈ 6.73 µM) | 3.62 (≈ 6.73 µM) | –
26 | O=c1[nH]c2ccc(Br)cc2cc1[C@@H](c1ccc(Cl)cc1)[C@]1(O)CCNC(Cc2ccccc2)C1 (stereo partly shown) [Compound 122] | 2.88 (≈ 5.35 µM) | – | 3.62 (≈ 6.73 µM) | – | – | – | 3.62 (≈ 6.73 µM)
27 | COc1nc2ccc(S(C)(=O)=O)cc2cc1C(c1ccc(Cl)cc1)C1(O)CCNC(c2ccc3ccccc3c2)C1 (stereo not shown) [Compound 464] | 1.47 (≈ 2.5 µM) | – | 1.17 (≈ 1.99 µM) | 154 | – | – | –
28 | COc1nc2ccc(S(C)(=O)=O)cc2cc1C(c1ccc(Cl)cc1)C1(O)CCNC(c2ccc3ccccc3c2)C1 (stereo not shown) [Compound 465] | 5.87 (≈ 10 µM) | – | 2.62 (≈ 4.46 µM) | 168 | – | – | –
29 | COc1nc2ccc(S(C)(=O)=O)cc2cc1C(c1ccc(Cl)cc1)C1(O)CCNC(c2ccc3ccccc3c2)C1 (stereo not shown) [Compound 466] | 3.70 (≈ 6.3 µM) | – | 1.47 (≈ 2.5 µM) | 188 | – | – | –
30 | COc1nc2ccc(Cl)cc2cc1C(c1ccc(Cl)cc1)C1(O)CCNC(Cc2cccnc2)C1 (stereo not shown) [Compound 467] | – | – | – | 148 | 3.21 (≈ 6.31 µM) | 2.55 (≈ 5.02 µM) | –
